Laboratory results: publication PMC2861369 (Current pharmaceutical biotechnology, 2009)

Target: T1, EH (recombinant mouse sEH) (Mus musculus, UniProt P34914)
T1 sequence (P34914 1-554): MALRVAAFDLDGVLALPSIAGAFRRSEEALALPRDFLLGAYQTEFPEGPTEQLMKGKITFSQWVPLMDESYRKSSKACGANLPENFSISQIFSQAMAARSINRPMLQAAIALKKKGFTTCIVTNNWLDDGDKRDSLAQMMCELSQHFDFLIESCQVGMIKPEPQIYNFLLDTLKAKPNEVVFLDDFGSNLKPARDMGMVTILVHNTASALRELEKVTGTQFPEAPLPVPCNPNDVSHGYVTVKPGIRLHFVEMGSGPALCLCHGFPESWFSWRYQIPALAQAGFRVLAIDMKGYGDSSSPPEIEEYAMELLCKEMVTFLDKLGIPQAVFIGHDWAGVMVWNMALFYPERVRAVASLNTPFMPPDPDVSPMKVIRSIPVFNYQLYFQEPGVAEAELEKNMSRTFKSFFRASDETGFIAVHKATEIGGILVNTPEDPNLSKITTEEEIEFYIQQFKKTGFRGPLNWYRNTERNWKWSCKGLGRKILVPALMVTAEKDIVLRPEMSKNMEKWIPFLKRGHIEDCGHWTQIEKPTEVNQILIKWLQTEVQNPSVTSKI
Assay: Effect of EH on the fluorescence of naphthyl derivatives
Type: binding
Details: ex 330 nm, EH 0–100 nM

Q: How did the “Effect of EH on fluorescence of the naphthyl derivative (in words)” value turn out when `O=C(Nc1ccc(O)c2ccccc12)NC1CCCCC1` [XIIa] was run?
A: The value was “appearance of a new peak and a clear enhancement of fluorescence”.
